Calls of active or inactive are those of the source. No rule for the calls is given here.

This experiment concerns Jurkat NF-kB reporter, luminescence. The experiment in a line: NF-kB reporter inhibition in Jurkat cells, dose response, selectivity assay for B-cell receptor NF-kB inhibitor project, cell-based, luminescence (AID 489006).
For the compound `CC1=CC(C)(C)Nc2ccc(OC(=O)CN3C(=O)CCC3=O)cc21`, the IC50 is 1.54 µM. To `COc1ccc(-c2noc(CCCC(=O)Nc3ccc(C(N)=O)cc3)n2)cc1` belongs 11.9 µM. In the case of `CCOc1ccc(-c2cc(CCCC(=O)NCCCOC)no2)cc1` it was > 80 µM (inactive); in that of `CC(C)(C)c1ccc(-n2ncc3c2CCCC3NC(=O)C2(C(N)=O)CC2)cc1` (stereo unspecified), > 80 µM (inactive); in that of `COc1cccc(-c2noc(CCC(=O)NCCc3ccccc3)n2)c1`, 29.8 µM (inactive). As to `COc1ccc(OC)c(NC(=O)c2[nH]c(C)c(C(C)=O)c2C)c1`, the IC50 was > 80 µM (inactive).

On to `N=c1ccn2c(n1)O[C@H]1[C@H](O)[C@@H](CO)O[C@H]12`, for which the IC50 was 0.64 µM. With `Cc1ccc(/C=C2\SC(=S)N(CCCC(=O)NC3CCCC3)C2=O)cc1`, the IC50 was 0.73 µM. In the case of `N=c1ccn(Cc2c(Cl)cccc2Cl)cc1` it was > 80 µM (inactive). In the case of `CCNC(=O)CCc1nc(-c2ccc(C(C)(C)C)cc2)no1` it was > 80 µM (inactive); in that of `Cc1ccoc1C(=O)Nc1ccc(CC(=O)O)cc1`, 0.26 µM. In the case of `O=C(NNC(=O)C12CC3CC(CC(Br)(C3)C1)C2)c1ccccc1F` it was > 80 µM (inactive). `CCOc1ccc(-c2cc(CCCC(=O)NCc3ccc(C)cc3)no2)cc1`: the IC50 was 6.59 µM. To `CCCC(=O)Nc1ccc(Sc2ccc([N+](=O)[O-])cc2)cc1` belongs 15.9 µM; to `Cc1ccc(-c2nn3c(C)nnc3c3ccccc23)cc1S(=O)(=O)NC(C)(C)CO`, 23.9 µM (inactive).

Regarding `Cc1nc2cc(-c3ccc(Cl)cc3)nn2c(C)c1CCC(=O)NCc1ccco1`, the concentration for half-maximal inhibition (IC50) is 0.34 µM.

Turning to `CC1CCc2c(sc3nc(C(C)(C)C)nc(N4CCN(C(=O)CCl)CC4)c23)C1` (stereo unspecified), the IC50 is 1.27 µM.

For the compound `C/C=C(/C)C(=O)OC1Cc2c(ccc3ccc(=O)oc23)OC1(C)C` (stereo unspecified), the IC50 is > 80 µM (inactive). In the case of `Cc1c(CCO)c(=O)oc2n[nH]c(-c3ccccc3)c12` it was > 80 µM (inactive); in that of `Cc1ccc(-c2nsc3c(N4CCC(C(N)=O)CC4)ncnc23)cc1`, 78.1 µM (inactive).

Take `COc1ccccc1/C=C1\SC(=S)N(CCC(=O)NC2=NCCS2)C1=O`: the IC50 is 28.3 µM (inactive). In the case of `COc1ccc(-c2ccc(OC)c([C@H]3[C@H]4C=CC[C@@H](C)[C@@H]4C(=O)N3Cc3ccccc3)c2)cc1C` it was > 80 µM (inactive); in that of `O=C(CCCN1C(=O)/C(=C/c2ccccc2Cl)SC1=S)Nc1cccnc1`, 6.58 µM; in that of `CCCCn1c2c(c(=N)c3ccccc31)CCC2`, > 80 µM (inactive). In the case of `C#CCN(Cc1ccccc1)S(=O)(=O)C=C` it was 9.39 µM; in that of `CCC(C)[C@H](N)c1nnc(SCC(=O)c2ccc(Cl)cc2)o1` (stereo partly specified), 72.9 µM (inactive). In the case of `CCOC(=O)Cc1ccc(NC(=O)c2ccc(C(C)(C)C)cc2)cc1`, the IC50 is 0.25 µM. `CCOc1ccc(-c2c[n+]3c(n2-c2ccccc2)CCCCC3)cc1`: the IC50 was > 80 µM (inactive).

Regarding `Cn1cnc([N+](=O)[O-])c1Sc1ccc([N+](=O)[O-])cc1`, the IC50 is 8.41 µM. Take `COc1ccc(/C=C2\SC(=S)N(CCC(=O)Nc3ccc(C(=O)O)cc3)C2=O)cc1`: the IC50 is > 80 µM (inactive). In the case of `COc1cc(OC)cc(-c2cc3nc(C)c(CCC(=O)Nc4nc(C)cs4)c(C)n3n2)c1` it was 5.28 µM. On to `CC(=O)C1=NN(c2ccccc2)C(c2cccs2)N1c1ccc(N(C)C)cc1` (stereo unspecified), for which the IC50 is > 80 µM (inactive).

As for `CN1CCN(C(=O)c2ccccc2N(Cc2ccccc2)S(=O)(=O)c2ccccc2)CC1`, the IC50 was > 80 µM (inactive). To `Cn1c(=O)cc(Nc2ccccc2)c2c(=O)n(-c3ccccc3)c(=O)n(-c3ccccc3)c21` belongs 71.9 µM (inactive); to `CC(C)(C)c1ccc(-c2noc(CCC(=O)NCC3CCCO3)n2)cc1` (stereo unspecified), 0.23 µM; to `Cc1ccc(C(=O)OCC(=O)N(CC(C)C)c2c(N)n(Cc3ccccc3)c(=O)[nH]c2=O)o1`, > 80 µM (inactive).

Consider `CCOc1ccc(-n2c(SCC(=O)Nc3ccc4c(c3)OCCO4)nc3c(c2=O)SCC3)cc1`, for which the IC50 was > 80 µM (inactive). As for `CCn1c(=O)cc(OCC(=O)Nc2ccc(OC)c(OC)c2)c2ccccc21`, the IC50 was > 80 µM (inactive). In the case of `CCOc1ccc(NC(=O)CCCc2cc(-c3ccc(OCC)cc3)on2)cc1` it was > 80 µM (inactive); in that of `Cc1c(CCC(=O)N2CCC(C(=O)O)(c3ccccc3)CC2)c(=O)oc2cc3oc4c(c3cc12)CCCC4`, 4.93 µM.

Take `COc1ccc(NC(=O)CN(C)C(=O)C2(c3ccccc3)CCCC2)cc1`: the IC50 was > 80 µM (inactive).

Regarding `O=C(CCCN1C(=O)/C(=C/c2ccccc2Cl)SC1=S)NNC(=O)c1ccccc1Cl`, the IC50 was 1.76 µM. In the case of `CC(C)c1ccc(/C=C2\SC(=S)N(CCC(=O)N3CCCCC3CCO)C2=O)cc1` (stereo unspecified) it was 0.33 µM; in that of `Cc1ccc(Nc2nc(N3CCOCC3)nc(N3CCOCC3)n2)cc1C`, > 80 µM (inactive). Regarding `COc1ccc2nc(C)cc(Sc3nc4ccccc4s3)c2c1`, the IC50 is 2.53 µM. To `CCCN1C(=O)/C(=C/c2c(N3CCNC(=O)C3CC(=O)OCC)nc3c(C)cccn3c2=O)SC1=S` (stereo unspecified) belongs 24.4 µM (inactive); to `O=C(CCl)N1CCN(S(=O)(=O)c2ccc3c(c2)CCC3)CC1`, 2.16 µM; to `CC(C)(C)c1ccc(-c2noc(CCC(=O)NCc3ccco3)n2)cc1`, 1.13 µM. To `CC1(c2nnc(-c3cccc(Cl)c3)o2)CC(c2cccc(Cl)c2)=NO1` (stereo unspecified) belongs > 80 µM (inactive); to `CCN(CC)CCOC(=O)c1ccc(NC(=O)COc2cc(=O)n(CC)c3ccccc23)cc1`, 43.8 µM (inactive). For the compound `Cc1ccc(C2(c3ccc(C)cc3)CC2C(=O)Nc2ccc([N+](=O)[O-])cc2O)cc1` (stereo unspecified), the IC50 was 50.1 µM (inactive). To `O=C(CCCN1C(=O)S/C(=C/C=C/c2ccccc2)C1=O)Nc1ccc(C(=O)O)cc1` belongs > 80 µM (inactive); to `CN(C)S(=O)(=O)c1ccc(NC(=O)N2CCN(c3ccccc3)CC2)cc1`, > 80 µM (inactive); to `COc1ccc(-c2nn(C)c(=O)c3ccccc23)cc1NS(C)(=O)=O`, > 80 µM (inactive). In the case of `Cc1ccc(C(=O)C[n+]2cc(-c3ccc(C)cc3)n3c2CCCCC3)cc1` it was 8.37 µM; in that of `COc1ccc(/C=C/c2ccccc2)cc1[C@H]1[C@H]2C=CC[C@@H](C)[C@@H]2C(=O)N1Cc1ccccc1`, > 80 µM (inactive). In the case of `O=C(Nc1cccc(Oc2ccc3c(c2)C(=O)NC3=O)c1)c1cccs1` it was > 80 µM (inactive). As to `C/C(=N\Nc1nc(Nc2ccccc2)nc(N2CCOCC2)n1)c1cccs1`, the IC50 is > 80 µM (inactive).

On to `CCn1c(=O)cc(SCC(=O)N2CCN(C)CC2)c2ccccc21`, for which the IC50 was > 80 µM (inactive). `CCOC(=O)c1nn(-c2ccccc2)c(C#N)c1NC(=O)c1nn(CC)cc1Br`: the IC50 was > 80 µM (inactive). Regarding `CC1Cc2ccccc2N1S(=O)(=O)c1cnc(Cl)c(Cl)c1` (stereo unspecified), the IC50 was 31.6 µM (inactive). In the case of `Oc1cc(O)cc(-c2cc3ccc(O)cc3o2)c1` it was > 80 µM (inactive). With `O=C(Nc1nc2nc(-c3ccccc3)cc(-c3ccccc3)n2n1)c1ccco1`, the IC50 is 12 µM. To `N=c1c(C(=O)NC2CCCC2)cc2c(=O)n3ccccc3nc2n1CCN1CCOCC1` belongs > 80 µM (inactive); to `COc1ccc(-c2ccc(C(C)=O)cc2)cc1[C@H]1[C@H]2C=CC[C@@H](C)[C@@H]2C(=O)N1Cc1ccccc1`, > 80 µM (inactive); to `CC(=C/c1ccco1)/C=N/NC(=O)CSc1nnc(SCc2ccc(C)cc2)s1`, > 80 µM (inactive). In the case of `Cc1ccc(/C=C2\SC(=S)N(CCCC(=O)Nc3ccccn3)C2=O)cc1`, the concentration for half-maximal inhibition (IC50) was 0.76 µM.

Consider `COc1cccc(/C=C2\SC(=S)N(CCCC(=O)NC3=NCCS3)C2=O)c1`, for which the IC50 is 25.9 µM (inactive).

`CCN1C(=O)c2cccc3c(S(=O)(=O)Nc4ccccn4)ccc1c23`: the IC50 was 40.5 µM (inactive). As for `C=CCn1c(O)c(C(CC)=NC(C)c2ccccc2)c(=O)[nH]c1=O` (stereo unspecified), the IC50 is 51.3 µM (inactive). To `C[C@H]1CCC/C=C/[C@@H]2C[C@H](O)C[C@H]2[C@H](O)/C=C/C(=O)O1` belongs > 80 µM (inactive).

As to `Cc1nc(Nc2c(Cl)cccc2Cl)sc1C(=O)Nc1ccccc1`, the IC50 was > 80 µM (inactive).

As to `COc1cc(NC(=O)c2cc3c(C)nc4ccccc4c3o2)cc(OC)c1OC`, the IC50 is > 80 µM (inactive).

On to `Cc1nc([N+](=O)[O-])c(Sc2nc3ccc([N+](=O)[O-])cc3[nH]2)n1Cc1ccccc1`, for which the IC50 was 7.42 µM.

With `CCC(C)N1C(=O)/C(=C/c2c(NCCCOC(C)C)nc3c(C)cccn3c2=O)SC1=S` (stereo unspecified), the IC50 was > 80 µM (inactive). For `COc1ccc(-n2c(-c3ccc(Cl)cc3)c[n+]3c2CCc2ccccc2-3)cc1`, the IC50 is 28.6 µM (inactive).

With `CCC(CO)Oc1cc(NCc2ccccc2O)c2ncn(C(C)C)c2c1` (stereo unspecified), the IC50 was > 80 µM (inactive).

Regarding `COc1ccc(S(=O)(=O)Nc2cc3c(C(C)=O)c(C)oc3c3ccccc23)cc1`, the IC50 is > 80 µM (inactive). As for `CCCCCOc1ccc(NC(=O)C(=O)NCCCn2ccnc2)cc1`, the IC50 was > 80 µM (inactive). Take `CCc1ccc(/C=C2/SC(=S)N(CCC(=O)Nc3cccnc3)C2=O)cc1`: the IC50 is > 80 µM (inactive). In the case of `O=C(CCCN1C(=O)/C(=C/c2ccccc2Cl)SC1=S)NNC(=O)c1ccccc1` it was 5.2 µM; in that of `Cc1ccc(C)c(OCc2ccc(C(=O)NN)o2)c1`, > 80 µM (inactive); in that of `COc1cc(NC(=O)c2ccco2)c(OC)cc1NC(=O)c1cc(OC)c(OC)c(OC)c1`, 23 µM (inactive).

`Cc1noc(C)c1CSc1nc2[nH]ncc2c(=O)n1-c1ccccc1`: the IC50 is 34.3 µM (inactive).

In the case of `COc1cc(/C(C)=N\NC(N)=S)cc(OC)c1OC`, the IC50 was 72.5 µM (inactive).

As to `COc1ccc(-c2noc(N3CCC(C(=O)Nc4cccc(OC)c4)CC3)n2)cc1`, the IC50 is > 80 µM (inactive).

Values taken from PubChem BioAssay AID489006 (Sanford-Burnham Center for Chemical Genomics, 2010).
